Consider 10 compounds from patent publication US4217366A, “Pharmaceutically active 2-(4-aminobutoxy)stilbenes” (Mitsubishi Chemical Industries, Ltd., priority 1978, dated 1980).

The ED50 is the dose that gives a 50% effect, or the effect in half of the subjects. A high value points to a need for a large dose. In general, LD50 refers to the dose expected to kill half of the subjects tested. A high value points to a less toxic substance. By inhibition is commonly meant the share of the control response that was lost under treatment.

In data set [1] the test system is maximal electroshock seizure (MES). The data set can be described thus: Anti-MES action: protection against tonic extensor (TE) induced by electroshock via a pair of ear electrodes. Type of data set: in vivo, ddy strain male mice. The procedure:
Animals used were ddy strain male mice (20-22 g) and Wistar strain male rats (150-170 g). Anticonvulsant actions were determined by the ability of the compounds to prevent pentylenetetrazol (PTZ) convulsion and maximal electroshock seizure (MES), using 8 mice per group. Anti-MES action was also judged by the protection against TE induced by electroshock via a pair of ear electrodes ([…] al., J. Pharmacol. exp. Therap., 127 55 (1959)). The results were expressed as 50% effective dose (ED50, mg/kg po) or an inhibition percentage at certain doses used.

For data set [2], the system named is pentylenetetrazol (PTZ) convulsion. Put plainly: Anti-PTZ action: protection against tonic extensor (TE) induced by intraperitoneal pentylenetetrazol (100 mg/kg i.p.). Type of data set: in vivo, ddy strain male mice. The following applies: for ED50 / inhibition at 50 mg/kg: Mus musculus; for inhibition at 50 mg/kg: at 50 mg/kg po (given as <50*). The procedure: (§1) Animals used were ddy strain male mice (20-22 g) and Wistar strain male rats (150-170 g). Anticonvulsant actions were determined by the ability of the compounds to prevent pentylenetetrazol (PTZ) convulsion and maximal electroshock seizure (MES), using 8 mice per group. Anti-PTZ action was judged by the protection against tonic extensor (TE) induced by intraperitoneal injection of PTZ (100 mg/kg i.p.) (K. Nakamura et al., Arch. int. Pharmacodyn., 156 261 (1965)). The results were expressed as 50% effective dose (ED50, mg/kg po) or an inhibition percentage at certain doses used.

Data set [3] relates to maximal electroshock seizure (MES) and pentylenetetrazol (PTZ) convulsion. The data set can be described thus: antiepileptic efficacy (anti-MES and anti-PTZ) compared with trimethadione and methotoin. The following applies: from Table 2. The class given is in vivo, ddy strain male mice. The procedure:
as §1, with “(1965)). Anti-MES action was also judged by the protection against TE induced by electroshock via a pair of ear electrodes ([…] al., J. Pharmacol. exp. Therap., 127 55 (1959)).” for “(1965)).”

A short description of data set [4]: LD50 in rats, method of Litchfield-Wilcoxon. The procedure:
(§2) Animals used were ddy strain male mice (20-22 g) and Wistar strain male rats (150-170 g).
(§3) LD50 was calculated by the method of Litchfield-Wilcoxon (J. T. Litchfield and F. Wilcoxon, J. Pharmacol. exp. Therap., 96 99 (1949)).

For data set [5] the following is noted: in vivo. The method, then: as §3
A short description of data set [6]: LD50 in mice, method of Litchfield-Wilcoxon. The class given is in vivo. As to conditions: mouse, in vivo, po. The method, then: as §2, §3
Data set [7] deals with Rat. As to conditions: po, from "Iyakuhin Kenkyuho" (page 258), Asakura Shoten (1968); cited from earlier work.
For data set [8], the system named is grand-mal seizure. As to conditions: well known antiepileptic agent; cited from earlier work.
The test system of data set [9] is Mice. The data set can be described thus: LD50 in mice, method of Litchfield-Wilcoxon. The class given is in vivo. The following applies: mice, po. The procedure:
as §2, §3

The test system of data set [10] is peti-mal seizure. The following applies: well known antiepileptic agent; cited from earlier work.
The mark [11] stands for this setting: Mus musculus, 50% effective dose, po, 8 mice per group.
Setting [12] is: 50% effective dose, po, PTZ 100 mg/kg i.p., 8 mice per group.

`CN(C)CCCCOc1ccccc1C=Cc1ccccc1.Cl` [Example 1, 2-(4-dimethylaminobutoxy)stilbene hydrochloride]: the ED50 in data set [1] (setting [11]) was found to be 38 mg/kg; in data set [2] (setting [12]) it was 17.8 mg/kg. The antiepileptic efficacy result in data set [3] is “much greater than that of trimethadione and methotoin”. The LD50 in data set [4] (in vivo; rat, po) amounted to 2000 mg/kg; in data set [6] (mice) it was 1300 mg/kg. For the same compound, the level of toxicity entry in data set [5] is recorded as “low level of toxicity”.
With `CCC1(c2ccccc2)NC(=O)N(C)C1=O` (stereo not drawn) [Methotoin, reference compound], the “LD50 Rat (literature)” value in data set [7] was 2,500 mg/kg PO. The “ED50 Anti-MES” value in data set [1] (50% effective dose, po, 8 mice per group) came out at 91.3 mg/kg PO. Besides, the “ED50 Anti-PTZ” value in data set [2] (setting [12]) is 51.9 mg/kg PO. For the same compound, in [8], the “effectiveness against grand-mal seizure” value was “effective against grand-mal seizure”. For the same compound, the “LD50 Mice” value in data set [9] is on record as 475 mg/kg PO.
With `CN1C(=O)OC(C)(C)C1=O` [Trimethadione, reference compound], the 50% effective dose (ED50) was 1180 mg/kg in [1] (setting [11]) and 230 mg/kg in [2] (setting [12]). Further, the median lethal dose (LD50) in [6] (mice) turned out to be 2200 mg/kg. Moreover, the “effectiveness against peti-mal seizure” value in [10] is “effective against peti-mal seizure”.
In the case of `CNCCCCOc1ccccc1C=Cc1ccccc1` [compound 2], the 50% effective dose (ED50) in data set [1] (setting [11]) is 60 mg/kg; in data set [2] (setting [12]), 22.5 mg/kg. The compound further displayed an LD50 in data set [6] (mice) of 839 mg/kg.
Consider `CN1CCN(CCCCOc2ccccc2C=Cc2ccccc2)CC1` [compound 3], for which the ED50 was 35.5 mg/kg in [1] (setting [11]) and 21.1 mg/kg in [2] (setting [12]). The antiepileptic efficacy entry in [3] was “much greater than that of trimethadione and methotoin”. The LD50 in [4] (rat, in vivo, po) was 2300 mg/kg; in data set [6] it was 1050 mg/kg. Further, the level of toxicity result in data set [5] was “low level of toxicity”.
Regarding `OCCN1CCN(CCCCOc2ccccc2C=Cc2ccccc2)CC1` [compound 4], the ED50 in data set [1] (setting [11]) amounted to 76.1 mg/kg; in data set [2] (setting [12]), 16.3 mg/kg. Moreover, the median lethal dose (LD50) in data set [6] (mice) stood at 1050 mg/kg.
For the compound `C(=Cc1ccccc1OCCCCN1CCCCC1)c1ccccc1` [compound 5], the ED50 in data set [1] (setting [11]) is 60 mg/kg; in data set [2] (setting [12]) it was < 50 mg/kg. The inhibition at 50 mg/kg in data set [2] is 100%. The LD50 in data set [6] (mice) worked out at 621 mg/kg.
Regarding `OC1CCCN(CCCCOc2ccccc2C=Cc2ccccc2)C1` (stereo not drawn) [compound 6], the 50% effective dose (ED50) in data set [1] (setting [11]) came out at 20 mg/kg; in [2] (setting [12]) it was 14 mg/kg. Further, the antiepileptic efficacy result in data set [3] was “much greater than that of trimethadione and methotoin”. In data set [6] (mice), this compound gave an LD50 of 415 mg/kg.
On to `C(=Cc1ccccc1OCCCCN1CCCC1)c1ccccc1` [compound 7], for which the ED50 was 65 mg/kg in [1] (setting [11]) and < 50 mg/kg in data set [2] (setting [12]). Also, the inhibition at 50 mg/kg in data set [2] turned out to be 87.5%. This compound also registered an LD50 in [6] (mice) of 600 mg/kg.
As for `CCCN1CCN(CCCCOc2ccccc2C=Cc2ccccc2)CC1` [compound 8], the inhibition at 50 mg/kg in [1] (Mus musculus, at 50 mg/kg po) was found to be 40%; in data set [2], 85%. The ED50 in data set [2] (setting [12]) is < 50 mg/kg.
